SMILES strings stand for the structures. pKd: −log10 of the molar value.

For one assay, the target named is T1, MEK1 (Homo sapiens, UniProt Q02750).
T1 construct: gene MAP2K1
As to the kind of experiment: microscale thermophoresis, labelled recombinant human MEK1. The assay is classed as binding. In general terms: MST reads how a fluorescent partner responds to local heating, with and without ligand.

The next assay has as its target T2, MEK2 (Homo sapiens, UniProt P36507).
T2 construct: gene MAP2K2
Kind of assay: microscale thermophoresis, labelled recombinant MEK2. The assay is classed as binding.

T2 sequence (P36507 whole entry): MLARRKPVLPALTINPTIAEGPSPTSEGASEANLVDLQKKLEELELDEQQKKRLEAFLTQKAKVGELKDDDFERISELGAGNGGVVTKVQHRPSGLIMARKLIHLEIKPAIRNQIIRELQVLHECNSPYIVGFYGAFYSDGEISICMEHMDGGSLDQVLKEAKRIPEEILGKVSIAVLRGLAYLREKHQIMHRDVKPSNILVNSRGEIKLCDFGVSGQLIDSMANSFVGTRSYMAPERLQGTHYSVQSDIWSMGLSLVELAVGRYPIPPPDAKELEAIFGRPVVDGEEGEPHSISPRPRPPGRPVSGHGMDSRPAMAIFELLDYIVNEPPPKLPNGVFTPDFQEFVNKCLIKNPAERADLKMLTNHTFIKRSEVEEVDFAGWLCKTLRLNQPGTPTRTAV
T1 sequence (Q02750 whole entry): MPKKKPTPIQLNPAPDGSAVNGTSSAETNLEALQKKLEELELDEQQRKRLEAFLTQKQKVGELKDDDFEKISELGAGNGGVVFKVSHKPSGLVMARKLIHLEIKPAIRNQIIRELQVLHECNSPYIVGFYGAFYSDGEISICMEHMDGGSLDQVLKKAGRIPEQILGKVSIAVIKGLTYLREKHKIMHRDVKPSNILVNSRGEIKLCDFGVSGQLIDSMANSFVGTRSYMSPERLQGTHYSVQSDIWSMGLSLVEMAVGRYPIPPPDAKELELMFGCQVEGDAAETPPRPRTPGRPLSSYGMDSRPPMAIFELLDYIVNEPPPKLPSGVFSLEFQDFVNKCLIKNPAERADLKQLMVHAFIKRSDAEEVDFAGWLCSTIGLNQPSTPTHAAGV

Take `C[C@H]1O[C@@H](O[C@@H]2[C@H](O)C[C@@H](O[C@@H]3[C@H](O)C[C@@H](O[C@H]4CC[C@@]5(C)[C@@H](CC[C@H]6[C@H]5C[C@@H](O)[C@]5(C)[C@H](C7=CC(=O)OC7)CC[C@]65O)C4)O[C@@H]3C)O[C@@H]2C)C[C@H](O)[C@@H]1O` [ZINC253504760, 3-[(3S,5S,8S,9R,10S,12R,13S,14S,17S)-3-[(2S,4R,5R,6R)-5-[(2R,4R,5R,6R)-5-[(2S,4S,5S,6R)-4,5-dihydroxy-6-methyloxan-2-yl]oxy-4-hydroxy-6-methyloxan-2-yl]oxy-4-hydroxy-6-methyloxan-2-yl]oxy-12,14-dihydroxy-10,13-dimethyl-1,2,3,4,5,6,7,8,9,11,12,15,16,17-tetradecahydrocyclopenta[a]henanthrene-17-yl]-2H-furan-5-one]: the pKd (in general, the negative decadic logarithm of the Kd, by convention in mol/L) is 6.30 at MEK1 and 5.66 at MEK2.

For the origin of these results see PMC10693532, “The cardiac glycoside ZINC253504760 induces parthanatos-type cell death and G2/M arrest via downregulation of MEK1/2 phosphorylation in leukemia cells” (Cell Biology and Toxicology, 2023).
